Results on two molecules are retold here after patent publication EP0322396A1, “Benzimidazole derivatives, their preparation and use” (Gerot-Pharmazeutika Gesellschaft m.b.H., priority 1987, dated 1989).

The nature of data set [1]: Tolerability (test not described). To be noted: compared with the reference Prazosin. In kind it is in vivo.
Data set [2] has as its system Blutdruck der Ratte. The experiment in a line: Blood pressure lowering in the rat after i.v. administration. In kind it is in vivo. To be noted: i.v. 1,0 mg/kg, after 3 hours, compared with Nifedipin and Verapamil at the same dose.
Data set [3] in a line: in vivo. To be noted: mouse, iv, Maus i.v.

Molecules are shown by their SMILES.

Broadly, the LD50 is the dose expected to kill half of the subjects tested. Lower therefore signals a more toxic substance.

In the case of `CC(O)CC(=O)N1CCC(n2c(=O)[nH]c3ccccc32)CC1` (stereo not drawn) [Beispiel 1, 1-(3-Hydroxybutyryl)-4-(2-oxo-1-benzimidazolinyl)-piperidin], in data set [1], the Verträglichkeit entry is “wesentlich verträglicher als die Vergleichssubstanz”.

For `COC(=O)C1=C(C)NC(C)=C(C(=O)OCCCN2CCC(n3c(=O)[nH]c4ccccc43)CC2)C1c1cccc([N+](=O)[O-])c1` (stereo not drawn) [Beispiel 4, 2,6-Dimethyl-3-{3-(4-(2-oxo-1-benzimidazolinyl)-1-piperidino]-propyloxy-carbonyl}-4-(3-nitro-phenyl)-5-methoxycarbonyl-1,4-dihydropyridin], in data set [2], the “senkt den Blutdruck der Ratte” value is “noch stärker als Nifedipin oder Verapamil”. In addition, the LD50 in data set [3] was 128 mg/kg.
